Here are results for six molecules from patent US20030143215A1, “Carbonyl stress-ameliorating agents” (priority 1999, published 2003).

For test [1] the following is noted: in vitro; Miyata T., J. Am. Soc. Nephrol. 11: 1719-1725, 2000; cited from earlier work.
Test [2] can be described thus: Incubation of sera with thiol compounds, production of AGE. The conditions noted are these: sera from a normal person and patients with diabetes mellitus; a long period was required. An excerpt: As described above, a decrease in concentration of redox coenzymes, such as GSH and NAD (P), is suspected to be the cause of AGE formation because of a decreased elimination of carbonyl compounds. […] Based on this theory, the present inventors tried to directly administer thiol compounds, such as GSH and cystein.

The conditions of test [3]: 400 μM methylglyoxal, 0-8 mM glutathione, PBS(-) pH7.4, 37° C., 0-24 hours; FIG. 1.
Protocol: The solutions were incubated at 37° C. Samples were taken after 0, 2, 4, 8, and 24 hours; and 40 μl of 2 M perchlorate, 40 μl of 1% o-phenylenediamine, and 100 μl of 200 μM glyoxal were added to 100 μl of each sample. The mixtures were stirred, and then incubated at 25° C. for one hour.
A short description of test [4]: Elimination of methylglyoxal from methylglyoxal solutions in the presence of glutathione and glyoxalase I. The settings on record: 400 μM methylglyoxal, 4 mM glutathione, glyoxalase I 8-80 unit/ml, 37° C., 1 hour; FIG. 2. The class given is biochemical. As for the experimental part: PBS(-) solutions were prepared, whose methylglyoxal concentration were 400 μM, glutathione concentration 4 mM, and the concentration of an enzyme having glyoxalase I activity were 8, 16, 40, and 80 unit/ml, respectively. The solutions were incubated at 37° C. A commercially available enzyme (Sigma) derived from yeast was used as the glyoxalase I. Samples were taken after 1 hour, and then methylglyoxal was quantified by the same method as in Example 1.

Test [5] can be described thus: Dicarbonyl compound elimination in mixed solutions containing three dicarbonyl compounds. The class given is biochemical. The settings on record: FIG. 4. Here is the method: PBS(-) solutions (pH7. 4) were prepared, whose concentrations of glyoxal, methylglyoxal, and 3-deoxyglucosone were all 200 μM, glutathione concentration were 0, 0.5, 1, or 5 mM, and glyoxalase I concentration were 0, 0.05, 0.1, 0.5, 1, or 2 unit/ml.

The nature of test [6]: Dicarbonyl compound elimination in solutions separately containing each dicarbonyl compound. It is filed as biochemical. The settings on record: 100 μM dicarbonyl, glutathione 0-10 mM, glyoxalase I 0-10 unit/ml, 37° C., 1 hour; FIG. 5. Here is the method:
PBS(-) solutions (pH 7.4) were prepared, whose glyoxal concentration were 100 μM, glutathione concentration 0, 0.1, 1, or 10 mM, and glyoxalase I concentration 0, 0.01, 0.1, 1, or 10 unit/ml. […] The same method was used for methylglyoxal and 3-deoxyglucosone in place of glyoxal.

Turning to `N=C(N)NN` [aminoguanidine], in test [1], the “trapping of carbonyl compounds methylglyoxal and glyoxal” value was “efficiently trap carbonyl compounds”.
Turning to `CCCCNC(=N)NC(=N)N` [buformin], the “trapping of carbonyl compounds methylglyoxal and glyoxal” value in test [1] is “efficiently trap carbonyl compounds”.
For `N[C@@H](CS)C(=O)O` [cystein, reference compound], in test [2], the “production of AGE in sera” value is listed as “suppressed the production of AGE”.
Regarding `N[C@@H](CCC(=O)N[C@@H](CS)C(=O)NCC(=O)O)C(=O)O` [glutathione], the “production of AGE in sera” value in test [2] was “suppressed the production of AGE”. Also, the “methylglyoxal trapping (residual rate of methylglyoxal)” value in test [3] is “trapped by glutathione depending on the concentration of glutathione and incubation time”.
`CN(C)C(=N)N=C(N)N` [metformin]: in test [1], the “trapping of carbonyl compounds methylglyoxal and glyoxal” value was “efficiently trap carbonyl compounds”.

B1: glyoxalase I: commercially available enzyme (Sigma) derived from yeast, lactoyl GSH lyase (EC. 4.4.1.5) (protein, UniProt P50107 1-326, looked up)
Glyoxalase I: MSTDSTRYPIQIEKASNDPTLLLNHTCLRVKDPARTVKFYTEHFGMKLLSRKDFEEAKFSLYFLSFPKDDIPKNKNGEPDVFSAHGVLELTHNWGTEKNPDYKINNGNEEPHRGFGHICFSVSDINKTCEELESQGVKFKKRLSEGRQKDIAFALGPDGYWIELITYSREGQEYPKGSVGNKFNHTMIRIKNPTRSLEFYQNVLGMKLLRTSEHESAKFTLYFLGYGVPKTDSVFSCESVLELTHNWGTENDPNFHYHNGNSEPQGYGHICISCDDAGALCKEIEVKYGDKIQWSPKFNQGRMKNIAFLKDPDGYSIEVVPHGLIA
In the case of B1, the methylglyoxal eliminated entry in test [4] was “Approximately 99%”. In addition, the “concentrations of dicarbonyl compounds in mixed solution” value in test [5] (200 μM each dicarbonyl, glutathione 0-5 mM, glyoxalase I 0-2 unit/ml, 37° C., 1 hour) is given as “Decrease in the concentrations of dicarbonyl compounds was observed”. Moreover, in test [5] (coexistence of methylglyoxal and glyoxal, 200 μM each), the “elimination of 3-deoxyglucosone in the mixed solution of three dicarbonyl compounds” value was “decreased”. Also, in test [6], the “concentrations of dicarbonyl compounds in solutions containing one dicarbonyl compound” value is “concentrations of dicarbonyl compounds decreased”.
